Test results reported in patent US9340554B2, “IRAK inhibitors and uses thereof” (Nimbus Iris, Inc., priority 2011, dated 2016).

Target: T1, IRAK4 (Homo sapiens, UniProt Q9NWZ3)
T1 construct: purchased CARNA Bioscience 09-145
T1 sequence (Q9NWZ3 1-460): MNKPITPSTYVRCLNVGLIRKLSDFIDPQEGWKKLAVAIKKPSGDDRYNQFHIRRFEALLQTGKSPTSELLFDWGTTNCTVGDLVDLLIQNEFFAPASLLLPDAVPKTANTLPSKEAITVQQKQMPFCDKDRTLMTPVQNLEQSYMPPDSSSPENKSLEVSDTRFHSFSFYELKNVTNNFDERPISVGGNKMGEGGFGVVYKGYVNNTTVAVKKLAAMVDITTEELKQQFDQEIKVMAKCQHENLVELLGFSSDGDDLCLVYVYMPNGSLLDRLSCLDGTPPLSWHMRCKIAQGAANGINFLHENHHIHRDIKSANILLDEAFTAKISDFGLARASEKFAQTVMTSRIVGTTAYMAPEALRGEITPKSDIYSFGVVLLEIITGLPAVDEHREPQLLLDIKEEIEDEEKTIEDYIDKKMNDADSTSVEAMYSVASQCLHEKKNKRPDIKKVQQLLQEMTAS
Assay: IRAK-4 activity inhibition assay (Caliper, Peptide 8, 37 μM ATP)
Type: biochemical
Settings: 3.5 nM IRAK4, 1.5 μM Peptide 8, 37 μM ATP, 28° C. 40 minutes; read-out: IRAK-4 activity inhibition IC50

Row | IC50 | SMILES
1 | < 5 µM | CN(CC(=O)N1CCOCC1)[C@H]1CC[C@H](Nc2ncnc3sc4c(c23)CCC4)CC1 [Compound I-130, 2-[methyl[4-([7-thia-9,11-diazatricyclo[6.4.0.0[2,6]]dodeca-1(12),2(6),8,10-tetraen-12-yl]amino)cyclohexyl]amino]-1-(morpholin-4-yl)ethan-1-one]
2 | < 5 µM | CN(C)C(=O)CN(C)[C@H]1CC[C@H](Nc2ncnc3sc4c(c23)CCC4)CC1 [Compound I-131, N,N-dimethyl-2-[methyl[4-([7-thia-9,11-diazatricyclo[6.4.0.0[2,6]]dodeca-1(12),2(6),8,10-tetraen-12-yl]amino)cyclohexyl]amino]acetamide]
3 | < 5 µM | CN(C1CCOCC1)[C@H]1CC[C@H](Nc2ncnc3sc4c(c23)CCC4)CC1 [Compound I-132, 1-N-methyl-1-N-(oxan-4-yl)-4-N-[7-thia-9,11-diazatricyclo[6.4.0.0[2,6]]dodeca-1(8),2(6),9,11-tetraen-12-yl]cyclohexane-1,4-diamine]
4 | < 5 µM | O=C(CN[C@H]1CC[C@H](Nc2ncnc3sc4c(c23)CCC4)CC1)N1CCCC1 [Compound I-134, trans-1-(pyrrolidin-1-yl)-2-[[4-([7-thia-9,11-diazatricyclo[6.4.0.0[2,6]]dodeca-1(8),2(6),9,11-tetraen-12-yl]amino)cyclohexyl]amino]ethan-1-one]
5 | < 5 µM | O=C(CN[C@H]1CC[C@H](Oc2ncnc3sc4c(c23)CCC4)CC1)N1CCCC1 [Compound I-135, trans-1-(pyrrolidin-1-yl)-2-[(4-[7-thia-9,11-diazatricyclo[6.4.0.0[2,6]]dodeca-1(8),2(6),9,11-tetraen-12-yloxy]cyclohexyl)amino]ethan-1-one]
6 | 5 to 20 µM | O=C(CN(CC(=O)N1CCCC1)[C@H]1CC[C@H](Nc2ncnc3sc4c(c23)CCC4)CC1)N1CCCC1 [Compound I-136, trans-2-[[2-oxo-2-(pyrrolidin-1-yl)ethyl][4-([7-thia-9,11-diazatricyclo[6.4.0.0[2,6]]dodeca-1(8),2(6),9,11-tetraen-12-yl]amino)cyclohexyl]amino]-1-(pyrrolidin-1-yl)ethan-1-one]
7 | 5 to 20 µM | O=C(CN(CC(=O)N1CCCC1)[C@H]1CC[C@H](Oc2ncnc3sc4c(c23)CCC4)CC1)N1CCCC1 [Compound I-137, trans-2-[[2-oxo-2-(pyrrolidin-1-yl)ethyl](4-[7-thia-9,11-diazatricyclo[6.4.0.0[2,6]]dodeca-1(8),2(6),9,11-tetraen-12-yloxy]cyclohexyl)amino]-1-(pyrrolidin-1-yl)ethan-1-one]
8 | 5 to 20 µM | FC(F)(F)CN[C@H]1CC[C@H](Nc2ncnc3sc4c(c23)CCC4)CC1 [Compound I-138, 1-N-[7-thia-9,11-diazatricyclo[6.4.0.0^[2,6]]dodeca-1(8),2(6),9,11-tetraen-12-yl]-4-N-(2,2,2-trifluoroethyl)cyclohexane-1,4-diamine]
9 | 20 to 50 µM | c1nc(OCCN2CCNCC2)c2c3c(sc2n1)CCC3 [Compound I-140, 4-(2-(piperazin-1-yl)ethoxy)-6,7-dihydro-5H-cyclopenta[4,5]thieno[2,3-d]pyrimidine]
10 | 5 to 20 µM | CN(C)CC1CC(Oc2ncnc3sc4c(c23)CCC4)C1 (stereo not drawn) [Compound I-141, 1-(3-((6,7-dihydro-5H-cyclopenta[4,5]thieno[2,3-d]pyrimidin-4-yl)oxy)cyclobutyl)-N,N-dimethylmethanamine]
11 | < 5 µM | c1nc(N[C@H]2CC[C@H](N3CCCC3)CC2)c2c3c(sc2n1)CCC3 [Compound I-142, N-((1r,4r)-4-(pyrrolidin-1-yl)cyclohexyl)-6,7-dihydro-5H-cyclopenta[4,5]thieno[2,3-d]pyrimidin-4-amine]

Same assay, conditions: IRAK-4 activity inhibition IC50, 3.5 nM IRAK4, 1.5 μM Peptide 8, 37 μM ATP, 28° C. 40 minutes

Row | IC50 | SMILES
12 | 20 to 50 µM | C[N+](C)(C)[C@H]1CC[C@H](Nc2ncnc3sc4c(c23)CCC4)CC1 [Compound I-139, (1r,4r)-4-((6,7-dihydro-5H-cyclopenta[4,5]thieno[2,3-d]pyrimidin-4-yl)amino)-N,N,N-trimethylcyclohexanaminium iodide]
